Format in all cases: physicochemical
Data set [1] in a line: Effect of temperature and solvent on the equilibrium composition of the mitraphylline isomers. From the text: The use of solvents with different polarity gave different equilibria, while other conditions were identical.
The next data set is described as follows: physchem. Conditions: 1-octanol/water. The source says: (§1) Protonation of the alkaloid hinders partition into the solvent, but the dependence of the distribution coefficient on pH is different for each isomer due to their different basicity. When the isomerization takes place in such a two-phase system, the equilibrium obtained in the organic phase is different from that in the aqueous phase. As an example, the coefficients of distribution Ko/w of mitraphylline and isomitraphylline between 1-octanol and water at three pH values and the corresponding equilibria are given in table 6 (FIG.11). |Coefficients of distribution between 1-octanol and water KO/W for |mitraphylline and isomitraphylline and the resulting equilibria as a |function of pH at 25° C. (% per weight).

Data set [2] is described as follows: Equilibrium of mitraphylline isomers in the two-phase system 1-octanol/water. The note with it: for resulting equilibrium (water): aqueous phase; for resulting equilibrium (octanol): octanol phase.
Text: as §1

Data set [3] in a line: Effect of temperature and solvent on the equilibrium composition of the pteropodine isomers. The procedure: | Effect of temperature and solvent on the equilibrium composition | of the pteropodine isomers (temperature from 25 to | 50° C., % per weight) The use of solvents with different polarity gave different equilibria, while other conditions were identical.
A short description of data set [4]: Rate of isomerization of pteropodine in solvents and solvent mixtures. Conditions: 50° C.; for rate coefficient of isomerization k: k = k12 + k13 + k14 from initial rate. The procedure: It is known from the literature that oxindole alkaloids undergo isomerization in polar solvents. Therefore hexafluoropropan-2-ol as a highly polar solvent was examined for its suitability as a medium for isomerization. A solution of pteropodine in hexafluoropropan-2-ol with a concentration of 18 mg/l was allowed to rest for 8 days at 20° C. Continually, samples were taken and analyzed. […] Pyridine has been reported to be a suitable solvent for the isomerization, although its polarity is very low. Our results confirmed this, but only when at least small portions of water were present. […] Important causes of solvent polarity are the dielectricity constant and the ability to form hydrogen bonds. The correlation of dielectricity and rate of reaction was investigated (table 1). | Correlation of the rate coefficient of isomerization of pteropodine and |dielectricity constant ε in pure solvents at 50° C.^a | ^a The rate coefficient k was determined from the initial rate of | isomerization of pteropodine and, therefore, is a composite coefficient k | = k12 + k13 + k14 and has the dimension [h^-1 ]. The | coefficient k12 describes the transformation of pteropodine to | isopteropodine, k13 to speciophylline and k14 to uncarine F, | respectively. […] But it was noticed that solvents with the ability to form hydrogen bonds, like formamide, water, glycerol or methanol, effect faster isomerization than solvents without this ability. […] Consequently, mixtures of solvents were produced from one part with a high dielectricity constant and another part with the ability to form hydrogen bonds as a proton donor. Mixtures of one part formamide and one part alcohol turned out to be suitable reaction media. Water is the only solvent which combines a high dielectricity constant with the ability to form hydrogen bonds to an extent which allows satisfactory reaction rates. However, oxindole alkaloids are practically insoluble in water. Thus, it is obvious to use suitable co-solvents.

Data set [5] is described as follows: Isomerization of pteropodine in hexafluoropropan-2-ol. Conditions: 18 mg/l, 8 days at 20° C. The procedure:
It is known from the literature that oxindole alkaloids undergo isomerization in polar solvents. Therefore hexafluoropropan-2-ol as a highly polar solvent was examined for its suitability as a medium for isomerization. A solution of pteropodine in hexafluoropropan-2-ol with a concentration of 18 mg/l was allowed to rest for 8 days at 20° C. Continually, samples were taken and analyzed. […] Pyridine has been reported to be a suitable solvent for the isomerization, although its polarity is very low. Our results confirmed this, but only when at least small portions of water were present. […] Important causes of solvent polarity are the dielectricity constant and the ability to form hydrogen bonds. The correlation of dielectricity and rate of reaction was investigated (table 1).

Data set [6] in a line: Effect of pH on equilibrium and rate of isomerization. Conditions: for dependence of isomer equilibrium mixture on pH: water-methanol 9:1, c=30 mg/l. The source says: It is known from the literature (J. -L. Pousset, J. Poisson and M. Shamma, Bull.Soc.Chim. (1967), 2766) that oxindole alkaloids isomerize via a zwitterionic intermediate which is formed at the β-amino carboxyl system. There a double bond is formed between the amino nitrogen and the β-carbon, the bond between α and β-carbon is opened, and the spiro centre at the co-carbon becomes free for inversion (FIG. 2). […] The pH of a mixture of 9 parts of water and 1 part of methanol was adjusted to values from 2 to 9 by addition of phosphoric acid or sodium hydroxide, respectively. Pteropodine (c=30 mg/l) was isomerized in these solvents until the equilibrium was reached. […] The dependence of the pteropodine equilibrium on pH in pure water was investigated, too (FIG. 3b). […] (FIG. 4).

Data set [7] can be described thus: Effect of temperature on the rate of isomerization of pteropodine. The note with it: water, c=20 mg/l, 50 hours. The procedure: The effect of temperature on the rate of reaction was investigated. Pteropodine was dissolved in water (c=20 mg/l) and isomerized at various temperatures for 50 hours. The reactions were monitored (FIG. 9). An increase of temperature by 12° C. accelerated the reaction by a factor of 5.

For `COC(=O)C1=COC(C)C2CN3CCC4(C(=O)Nc5ccccc54)C3CC12` (stereo not drawn) [Isomitraphylline, isomitraphylline], the equilibrium composition in data set [1] (25° C., methanol) turned out to be 77.5 % per weight; in data set [1] (25° C., water), 65.6 % per weight; in data set [1] (37° C., methanol), 75.0 % per weight; in data set [1] (37° C., water), 67.5 % per weight; in data set [1] (50° C., methanol), 73.7 % per weight; in data set [1] (50° C., water), 68.0 % per weight. Also, the “log KO/W” value in the data set “physchem” (pH 3) came out at 0.43; in the data set “physchem” (pH 5), 2.3; in “physchem” (pH 7), 2.8. The “resulting equilibrium (water)” value in data set [2] (pH 3, 25° C.) worked out at 11.9 % per weight; in data set [2] (pH 5, 25° C.) it was 0.5 % per weight; in data set [2] (pH 7, 25° C.), 0.08 % per weight. Also, the “resulting equilibrium (octanol)” value in data set [2] (pH 3, 25° C.) is on record as 32.0 % per weight; in data set [2] (pH 5, 25° C.), 93.9 % per weight; in data set [2] (pH 7, 25° C.) it was 78.8 % per weight.
On to `COC(=O)C1=CO[C@@H](C)[C@@H]2CN3CC[C@@]4(C(=O)Nc5ccccc54)[C@@H]3C[C@H]12` [Isopteropodine, isopteropodine], for which the equilibrium composition in data set [3] (25° C., methanol) was found to be 75.4 % per weight; in data set [3] (25° C., water), 60.9 % per weight; in data set [3] (37° C., methanol), 75.5 % per weight; in data set [3] (37° C., water), 59.6 % per weight; in data set [3] (50° C., methanol), 73.5 % per weight; in data set [3] (50° C., water) it was 59.4 % per weight.
For the molecule `COC(=O)C1=COC(C)C2CN3CCC4(C(=O)Nc5ccccc54)C3CC12` (stereo not drawn) [Mitraphylline, mitraphylline], the equilibrium composition stood at 22.5 % per weight in data set [1] (25° C., methanol); 34.4 % per weight in data set [1] (25° C., water); 25.0 % per weight in data set [1] (37° C., methanol); 32.5 % per weight in data set [1] (37° C., water); 26.3 % per weight in data set [1] (50° C., methanol); 32.0 % per weight in data set [1] (50° C., water). Further, the “log KO/W” value is given as -0.24 in the data set “physchem” (pH 3) and 0.67 in “physchem” (pH 5). The logD (commonly lipophilicity at a set pH, counting ionised and neutral species) in “physchem” (pH 7, log KO/W) stood at 2.5. For the same molecule, the “resulting equilibrium (water)” value in data set [2] (pH 3, 25° C.) is 35.6 % per weight; in data set [2] (pH 5, 25° C.), 1.0 % per weight; in data set [2] (pH 7, 25° C.) it was 0.12 % per weight. Also, the “resulting equilibrium (octanol)” value in data set [2] (pH 3, 25° C.) was 20.5 % per weight; in data set [2] (pH 5, 25° C.), 4.6 % per weight; in data set [2] (pH 7, 25° C.), 21.0 % per weight.
`COC(=O)C1=COC(C)C2CN3CCC4(C(=O)Nc5ccccc54)C3CC12` (stereo not drawn) [Pteropodine, pteropodine]: the “rate coefficient of isomerization k” value in data set [4] (dimethyl sulfoxide) came to 0.00007 h⁻¹; in data set [4] (dioxane), 0.0000004 h⁻¹; in data set [4] (formamide), 0.005 h⁻¹; in data set [4] (glycerol), 0.0072 h⁻¹; in data set [4] (methanol) it was 0.0020 h⁻¹; in data set [4] (pyridine), 0.00002 h⁻¹. Moreover, the “rate coefficient of isomerization k” value in data set [4] (water) stood at 1.11 h⁻¹. The “rate of isomerization k” value in data set [4] (formamide-hexafluorpropan-2-ol (1:1)) came to 0.0037 h⁻¹; in data set [4] (formamide-methanol (1:1)), 0.0050 h⁻¹; in data set [4] (methanol-dimethyl sulfoxide (1:1)), 0.0018 h⁻¹; in data set [4] (methanol-dioxane (1:1)), 0.0024 h⁻¹; in data set [4] (water-acetonitrile (1:1)), 0.042 h⁻¹; in data set [4] (water-dioxane (1:1)) it was 0.0012 h⁻¹. Moreover, the “rate of isomerization k” value was 0.067 h⁻¹ in data set [4] (water-formamide (1:1)), 0.043 h⁻¹ in data set [4] (water-methanol (1:1)) and 0.002 h⁻¹ in data set [4] (water-pyridine (1:1)). The isomerization result in data set [5] is “No isomerization was observed”. The “dependence of isomer equilibrium mixture on pH” value in data set [6] (acidic solutions) is recorded as “depended characteristically on the pH value”; in data set [6] (neutral or alkaline solutions), “independent of pH in neutral or alkaline solutions”. For the same molecule, the “rate of reaction with increasing proton concentration” value in data set [6] (pH 2 to 9) is given as “decreased with increasing proton concentration”. Also, the equilibrium composition amounted to 22.9 % per weight in data set [3] (25° C., methanol); 29.6 % per weight in data set [3] (25° C., water); 22.6 % per weight in data set [3] (37° C., methanol); 29.8 % per weight in data set [3] (37° C., water); 23.5 % per weight in data set [3] (50° C., methanol); 29.6 % per weight in data set [3] (50° C., water). For the same molecule, the “acceleration of the reaction by an increase of temperature by 12° C. (factor)” value in data set [7] came out at 5.
For `COC(=O)C1=COC(C)C2CN3CCC4(C(=O)Nc5ccccc54)C3CC12` (stereo not drawn) [Speciophylline, speciophylline], the equilibrium composition in data set [3] (25° C., methanol) is 0.4 % per weight; in data set [3] (25° C., water), 4.3 % per weight; in data set [3] (37° C., methanol), 0.5 % per weight; in data set [3] (37° C., water) it was 4.5 % per weight; in data set [3] (50° C., methanol), 1.0 % per weight; in data set [3] (50° C., water) it was 4.6 % per weight.
Regarding `COC(=O)C1=COC(C)C2CN3CCC4(C(=O)Nc5ccccc54)C3CC12` (stereo not drawn) [Uncarine F, uncarine F], the equilibrium composition in data set [3] (25° C., methanol) is recorded as 1.3 % per weight; in data set [3] (25° C., water), 5.2 % per weight; in data set [3] (37° C., methanol), 1.4 % per weight; in data set [3] (37° C., water), 6.1 % per weight; in data set [3] (50° C., methanol), 2.0 % per weight; in data set [3] (50° C., water) it was 6.4 % per weight.

The values are drawn from patent US5723625A, “Process for the production of specific isomer mixtures from oxindole alkaloids” (Immodal Pharmaka Gesellschaft m.b.H, priority 1994, dated 1998).
